Measurements published in US20090054517A1, “Phytoestrogens As Regulators Of Hedgehog Signaling And Methods Of Their Use In Cancer Treatment” (priority 2007, published 2009).
Like-named read-outs stand apart in the source and are kept apart here. One block for each compound: values may come before it.

Tests used:
Gli1 = Gli1 mRNA expression by RT-PCR / real-time RT-PCR in TRAMP-C2 cells; type: cell-based, mouse; conditions: for suppression of Gli1 mRNA concentration compared with cyclopamine 30 μM: TRAMP-C2, time course 72 hrs, genistein 50 μM, EGCG 100 μM, FIG. 7A
Procedure: (§1) It has been shown that phytoestrogens in common herbs regulate prostate cancer cell growth in vitro (Shenouda et al., 2004). In order to determine whether these phytoestrogens also regulate cells derived from the mouse model of prostate cancer, the TRAMP-C2 cell line was treated with the soy phytoestrogen genistein and growth inhibition IC50 doses were determined (FIG. 4). Effects of the phytoestrogens genistein and EGCG on expression of these Hedgehog-pathway components were also determined by quantitative RT-PCR. Cyclopamine was used as a control. […] GAPDH was used as an internal control.
Another experiment was carried out to determine the dosage response of these phytoestrogen on Gli1 expression in the TRAMP-C2 cell line. Increasing amounts of genistein or EGCG were added to cell cultures of TRAMP-C2, and the levels of Gli1 mRNA was determined by real time RT-PCR. The results of this experiment verifies a correlation between phytoestrogen treatment and Hedgehog activity (FIG. 6).
In order to test whether the inhibitory effect of genistein on Gli1 transcription is through ERα or ERβ, experiments were conducted to determine whether 17β-estradiol (E2) works in the same manner as genistein (FIG. 7C).

[1] = test system: Hedgehog signaling pathway; experiment: Hedgehog pathway repression, approximate IC50 from RT-PCR; type: cell-based, mouse; conditions: read-out: Approximate IC50 for pathway repression
Procedure: Another experiment was carried out to determine the dosage response of these phytoestrogen on Gli1 expression in the TRAMP-C2 cell line. […] The results of this experiment verifies a correlation between phytoestrogen treatment and Hedgehog activity (FIG. 6). […] These concentrations may be easily obtainable pharmacologically in humans.

[2] = test system: Gli1 protein in LNCaP cells; experiment: Gli1 protein concentration in LNCaP cells by Western blot; type: cell-based, human
Procedure: (§2) Approximate IC50 values for pathway repression were determined as 30 μM for genistein, 20 μM for EGCG, and 5 μM for resveratrol. These concentrations may be easily obtainable pharmacologically in humans. […] Thus, Genistein, EGCG, and resveratrol may regulate prostate cancer via inhibition of the Hedgehog signaling pathway.

Patched1 = Patched1 mRNA levels by RT-PCR; type: cell-based, mouse
Procedure: as §1, §2

TRAMP-C2 cells = experiment: Growth of TRAMP-C2 cell line (total cellular protein); type: cell-based, mouse
Procedure: as §1

[3] = test system: Hedgehog pathway activity in Shh Light II cells; experiment: Shh Light II Gli1-responsive luciferase reporter assay; type: cell-based; conditions: Shh Light II cells with sonic hedgehog protein, 24 hours, FIG. 7B
Procedure: The effects of various phytoestrogens on Hedgehog signaling in a non-tumor cell line Shh Light II were also assessed (FIG. 7B). Shh Light II cells were obtained from the ATCC. These cells, containing the Gli1 responsive promoter driving a luciferase reporter, are a standard tool used to assay Hedgehog pathway activity. Meloni et al., 2006. Cells were allowed to reach confluency in 24-well plates and subsequently treated with the selected phytoestrogens at the amount indicated on the figure, along with the stimulatory sonic hedgehog protein (obtained from R&D Systems). The cells were then grown for 24 hours in phenol red-free DMEM supplemented with 0.5% charcoal stripped fetal bovine serum. Cells were then lysed, and the luciferase and renilla activities of the cell lysates were measured.

xenograft tumors = conditions: mice; cited from earlier work
[4] = in vivo; cited from earlier work
[5] = test system: prostate tumor in ERαKO/TRAMP mice; experiment: Prostate tumorigenesis in ERαKO/TRAMP mice fed genistein diet; type: in vivo, mouse
Procedure: (§3) The influence of estrogen on prostate cancer has been previously described in the Background section. In order to determine the effect of genistein on prostate tumor development in the TRAMP model, in the first experiment, groups of ˜30 male mice, either ERαKO/TRAMP, ERβKO/TRAMP or ERWT/TRAMP were fed diets containing 0 or 300 mg genistein/kg (See Table 1). Mice were fed the diets from weaning and were euthanized at 5 months of age. Prostates were dissected and prepared for histopathology. The tumor stage was assessed using ratings of normal (N), hyperplasia (HYP), prostatic intraepithelial neoplasia (PIN), well differentiated carcinoma (WDC), moderately differentiated carcinoma (MDC) or poorly differentiated carcinoma (PDC) See Wechter et al., 2000; also see http://thegreenberglab.fhcrc.org. To summarize the data, non-cancer was defined as N, HYP or PIN and cancer was defined as WDC, MDC or PDC (Table 1) The prostate tumor incidence was compared between mice fed with genistein diet and those fed with casein.

[6] = test system: prostate tumor in ERβKO/TRAMP mice; experiment: Prostate tumorigenesis in ERβKO/TRAMP mice fed genistein diet; type: in vivo, mouse
Procedure: as §3

[7] = test system: poorly differentiated carcinoma in TRAMP mouse; conditions: TRAMP mouse model; cited from earlier work
[8] = test system: prostate tumor in ERWT/TRAMP mice; experiment: Prostate tumorigenesis in ERWT/TRAMP mice fed genistein diet; type: in vivo, mouse
Procedure: as §3

[9] = test system: estrogen receptor alpha (ERα) and beta (ERβ); conditions: cited from earlier work
[10] = ERαKO/TRAMP, 300 mg genistein/kg diet, 5 months of age
[11] = ERβKO/TRAMP, 300 mg genistein/kg diet, 5 months of age
[12] = ERWT/TRAMP, 300 mg genistein/kg diet, 5 months of age

SMILES: C[C@]12CC[C@@H]3c4ccc(O)cc4CC[C@H]3[C@@H]1CC[C@@H]2O [E2, 17β-estradiol, reference compound]
inhibition of Gli1 expression (Gli1; TRAMP-C2 cells, 10 nM, 24 hours, FIG. 7C): Strong inhibition

IC50 ([1]; RT-PCR): ~20 µM
SMILES: O=C(O[C@@H]1Cc2c(O)cc(O)cc2O[C@@H]1c1cc(O)c(O)c(O)c1)c1cc(O)c(O)c(O)c1 [EGCG]
suppression of Gli1 mRNA concentration compared with cyclopamine 30 μM (Gli1): more pronounced
expression of Gli1, Gli2 and Gli3 (Gli1; TRAMP-C2 cells): down-regulate
Gli1 protein concentration [2]: significantly reduced
reduction of Patched1 mRNA levels (Patched1): 70%
proliferation of TRAMP-C2 cells (TRAMP-C2 cells): inhibited

SMILES: COc1cc(/C=C/C(=O)CC(=O)/C=C/c2ccc(O)c(OC)c2)ccc1O [curcumin]
hedgehog activity (luciferase reporter activity) [3]: inhibit

SMILES: CC1=C2C[C@H]3[C@@H](CC=C4C[C@@H](O)CC[C@@]43C)[C@@H]2CC[C@]12O[C@@H]1C[C@H](C)CN[C@H]1[C@H]2C [cyclopamine]
effect on xenograft tumors (xenograft tumors): complete regression
birth defects in the progeny [4]: cause birth defects, most notably cyclopia

SMILES: O=c1c(-c2ccc(O)cc2)coc2cc(O)cc(O)c12 [genistein]
protective effect on prostate tumor incidence versus casein diet ([5]; ERαKO/TRAMP mice, 300 mg genistein/kg diet from weaning to 5 months): not
HYP (2), number of mice [5, 10]: 0
MDC (5), incidence [5, 10]: 3.8%
MDC (5), number of mice [5, 10]: 1
Normal (Stage1), incidence [5, 10]: 3.8%
Normal (Stage1), number of mice [5, 10]: 1
PDC (6), number of mice [5, 10]: 0
PIN (3), incidence [5, 10]: 3.8%
PIN (3), number of mice [5, 10]: 1
WDC (4), incidence [5, 10]: 88.6%
WDC (4), number of mice [5, 10]: 23
IC50 ([1]; Mus musculus): ~30 µM
suppression of Gli1 mRNA concentration compared with cyclopamine 30 μM (Gli1): more pronounced
expression of Gli1, Gli2 and Gli3 (Gli1; TRAMP-C2 cells): down-regulate
Gli1 expression compared to the untreated control (Gli1; TRAMP-C2 cells, RT-PCR, FIG. 5, GAPDH internal control): down-regulates
effect of addition of genistein on inhibition of Gli1 expression by E2 (Gli1; TRAMP-C2 cells, with 10 nM E2, FIG. 7C): did not enhance
protective effect on prostate tumor incidence versus casein diet ([6]; ERβKO/TRAMP mice, 300 mg genistein/kg diet from weaning to 5 months): not
HYP (2), number of mice [6, 11]: 0
MDC (5), number of mice [6, 11]: 0
Normal (Stage1), number of mice [6, 11]: 0
PDC (6), incidence [6, 11]: 48%
PDC (6), number of mice [6, 11]: 10
PIN (3), incidence [6, 11]: 19%
PIN (3), number of mice [6, 11]: 4
WDC (4), incidence [6, 11]: 33%
WDC (4), number of mice [6, 11]: 7
hedgehog activity (luciferase reporter activity) [3]: inhibit
effect on poorly differentiated carcinoma [7]: protective effect
protective effect on prostate tumor incidence versus casein diet ([8]; ERWT/TRAMP mice, 300 mg genistein/kg diet from weaning to 5 months): significant protective effect
HYP (2), incidence [8, 12]: 28%
HYP (2), number of mice [8, 12]: 15
MDC (5), incidence [8, 12]: 2%
MDC (5), number of mice [8, 12]: 1
Normal (Stage1), number of mice [8, 12]: 0
PDC (6), incidence [8, 12]: 24%
PDC (6), number of mice [8, 12]: 13
PIN (3), incidence [8, 12]: 33%
PIN (3), number of mice [8, 12]: 18
WDC (4), incidence [8, 12]: 13%
WDC (4), number of mice [8, 12]: 7
binding to ERα and ERβ [9]: bind both receptors with a higher affinity for ERβ
Gli1 protein concentration [2]: significantly reduced
reduction of Patched1 mRNA levels (Patched1): 70%
proliferation of TRAMP-C2 cells (TRAMP-C2 cells): inhibited

IC50 ([1]; Mus musculus, RT-PCR): ~5 µM
SMILES: Oc1ccc(C=Cc2cc(O)cc(O)c2)cc1 [resveratrol]
reduction of Gli1 mRNA (Gli1; RT-PCR): 60%
Gli1 protein concentration [2]: significantly reduced
reduction of Patched1 mRNA levels (Patched1): 50%
